Paper PMC11597879, “In Silico and In Vitro Investigation of Cytotoxicity and Apoptosis of Acridine/Sulfonamide Hybrids Targeting Topoisomerases I and II” (Pharmaceuticals, 2024)

What was measured:
HepG2 cells [1] = assay: Cell cycle analysis (PI, flow cytometry); details: HepG2, 24 h treatment, DNA content percentage
Protocol: Subsequently, the cells were harvested, fixed in 70% ethanol, and incubated for 12 h at 4 °C. After fixation, the cells were centrifuged, and the cell pellets were washed and resuspended in 0.5 mL of cold phosphate-buffered saline (PBS). The cells were then stained with 5 μg/mL of propidium iodide (PI; Sigma, Panama City, Panama), and the DNA content was determined using a BD FACSCalibur flow cytometer (Becton Dickinson, Franklin Lakes, NJ, USA). Data analysis was performed using CellQuest software, and 10,000 events were analyzed for each sample.

THLE-2 cell line = assay: MTT cytotoxicity against normal cell line THLE-2; type: cell-based, human; details: normal liver epithelial cells
Protocol: These cells were cultured in Dulbecco’s Modified Eagle’s Medium (DMEM) from Invitrogen/Life Technologies, supplemented with 10% Hyclone fetal bovine serum, […], and 1% penicillin and streptomycin. For experimental purposes, the cells were seeded in 96-well tissue culture plates at an approximate density of 5 × 10^3 cells per well and were allowed to incubate overnight. The following day, the culture medium was replaced with fresh medium containing varying concentrations of the synthesized compounds to be tested for their toxicity. After 48 h of exposure, the medium was removed, and the cells were washed twice with phosphate-buffered saline (PBS). A new medium containing MTT solution was added, and the cells were further incubated for 4 h. The cellular viability and toxicity in response to each compound were determined using ELISA microplate reader- Bioline by measuring the absorbance at a wavelength of 450 nm.

human Topo-II = molecular target: T1, human Topo-II (Homo sapiens, UniProt P11388); assay: Topoisomerase II inhibitory assay (supercoiled pHot1 DNA, gel electrophoresis); type: biochemical; details: 37 °C 30 min
T1 construct: purchased TopoGEN TG1009
T1 sequence (P11388 whole entry): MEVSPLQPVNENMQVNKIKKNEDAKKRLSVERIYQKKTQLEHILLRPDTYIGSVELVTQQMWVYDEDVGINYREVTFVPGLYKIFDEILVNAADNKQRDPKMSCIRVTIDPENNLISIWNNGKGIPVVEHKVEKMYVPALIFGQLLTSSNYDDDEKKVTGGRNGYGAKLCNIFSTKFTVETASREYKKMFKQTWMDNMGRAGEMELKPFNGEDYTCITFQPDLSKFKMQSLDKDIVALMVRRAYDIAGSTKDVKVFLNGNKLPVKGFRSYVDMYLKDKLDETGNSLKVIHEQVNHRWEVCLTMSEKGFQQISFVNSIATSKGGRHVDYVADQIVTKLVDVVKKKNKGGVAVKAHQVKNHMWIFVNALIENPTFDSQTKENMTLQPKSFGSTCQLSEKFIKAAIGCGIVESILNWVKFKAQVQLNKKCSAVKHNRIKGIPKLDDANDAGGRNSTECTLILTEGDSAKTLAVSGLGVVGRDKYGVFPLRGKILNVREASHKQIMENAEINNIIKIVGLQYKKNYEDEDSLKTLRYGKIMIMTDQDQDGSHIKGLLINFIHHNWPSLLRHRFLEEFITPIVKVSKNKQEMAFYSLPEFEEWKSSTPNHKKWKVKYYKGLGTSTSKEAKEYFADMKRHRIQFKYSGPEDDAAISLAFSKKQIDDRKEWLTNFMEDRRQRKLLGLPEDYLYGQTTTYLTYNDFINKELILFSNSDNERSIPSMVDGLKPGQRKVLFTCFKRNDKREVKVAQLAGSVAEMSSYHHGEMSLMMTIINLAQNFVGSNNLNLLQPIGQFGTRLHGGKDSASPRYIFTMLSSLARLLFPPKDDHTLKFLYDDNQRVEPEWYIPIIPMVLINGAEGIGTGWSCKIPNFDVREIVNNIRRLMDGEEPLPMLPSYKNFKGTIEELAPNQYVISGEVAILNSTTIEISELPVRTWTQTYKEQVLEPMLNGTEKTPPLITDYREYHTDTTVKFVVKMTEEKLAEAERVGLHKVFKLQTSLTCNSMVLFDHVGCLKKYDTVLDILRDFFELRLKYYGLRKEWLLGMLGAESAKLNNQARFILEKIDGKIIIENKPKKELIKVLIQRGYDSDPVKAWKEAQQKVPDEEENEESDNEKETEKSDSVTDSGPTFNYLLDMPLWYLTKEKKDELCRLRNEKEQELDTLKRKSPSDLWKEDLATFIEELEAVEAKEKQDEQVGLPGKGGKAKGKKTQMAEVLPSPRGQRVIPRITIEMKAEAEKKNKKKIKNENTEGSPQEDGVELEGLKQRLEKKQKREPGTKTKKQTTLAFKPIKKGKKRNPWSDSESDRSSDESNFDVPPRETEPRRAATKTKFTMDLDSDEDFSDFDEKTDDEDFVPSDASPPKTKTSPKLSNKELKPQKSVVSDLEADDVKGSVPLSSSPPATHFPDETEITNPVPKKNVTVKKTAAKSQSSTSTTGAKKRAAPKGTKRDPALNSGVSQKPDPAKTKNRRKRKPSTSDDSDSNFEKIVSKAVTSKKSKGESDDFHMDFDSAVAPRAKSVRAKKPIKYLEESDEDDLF
Description: (§1) Subsequently, these compounds were employed to evaluate their capacity to inhibit topoisomerase activity at the established IC50, using supercoiled DNA as a substrate. The resulting DNA products were separated via 1% gel electrophoresis and stained with ethidium bromide. […] To evaluate the catalytic activity of Topo-I, supercoiled DNA served as the substrate. Commercial samples of Topo I and supercoiled DNA were provided by […], TopoGEN, Inc. (Columbus, OH, USA).
To assess the Topo-II activity, a typical enzyme reaction was set up using human Topo-II, supercoiled pHot1 DNA as the substrate, the test drug, and the assay buffer. […] Following that, the DNA was stained and ran on a 1% agarose gel for one to two hours using a Bio-Rad gel electrophoresis apparatus. Both supercoiled and linear DNA strands were included in the gel to serve as indicators for DNA-Topo-II intercalation.

Topo-I = molecular target: T2, Topo-I (Homo sapiens, UniProt P11387); assay: Topoisomerase I inhibitory assay (supercoiled DNA, gel electrophoresis); type: biochemical; details: supercoiled DNA substrate, 37 °C 30 min
T2 construct: purchased TopoGEN, Inc. (Columbus, OH, USA) TG1018-1A
T2 sequence (P11387 1-765): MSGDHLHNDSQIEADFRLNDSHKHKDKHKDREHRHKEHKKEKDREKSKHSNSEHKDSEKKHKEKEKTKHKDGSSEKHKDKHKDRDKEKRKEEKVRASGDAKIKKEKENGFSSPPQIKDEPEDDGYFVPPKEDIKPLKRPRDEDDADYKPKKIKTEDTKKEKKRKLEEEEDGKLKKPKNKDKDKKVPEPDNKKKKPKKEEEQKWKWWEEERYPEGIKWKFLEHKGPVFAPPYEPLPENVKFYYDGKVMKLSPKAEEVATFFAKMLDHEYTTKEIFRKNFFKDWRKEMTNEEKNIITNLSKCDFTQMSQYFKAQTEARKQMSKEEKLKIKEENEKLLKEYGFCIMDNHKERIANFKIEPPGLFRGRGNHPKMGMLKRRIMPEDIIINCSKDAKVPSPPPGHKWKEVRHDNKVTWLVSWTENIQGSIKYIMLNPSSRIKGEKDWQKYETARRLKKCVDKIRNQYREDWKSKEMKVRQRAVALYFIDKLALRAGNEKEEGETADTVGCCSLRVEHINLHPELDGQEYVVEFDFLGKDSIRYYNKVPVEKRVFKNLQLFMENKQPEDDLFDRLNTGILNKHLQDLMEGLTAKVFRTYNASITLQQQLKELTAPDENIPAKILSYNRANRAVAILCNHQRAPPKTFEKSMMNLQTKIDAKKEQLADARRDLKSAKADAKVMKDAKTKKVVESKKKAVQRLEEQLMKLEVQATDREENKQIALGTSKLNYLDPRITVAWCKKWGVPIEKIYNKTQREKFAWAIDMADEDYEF
Description: as §1
To visualize the cleavage products after incubation, we used 1% agarose gel electrophoresis to separate the samples.

HCT-116 cells = tested on: HCT-116 cells; design: method as in earlier work; details: MTT, 48 h exposure; cited from earlier work
HepG2 cells [2] = tested on: HepG2 cells; design: method as in earlier work; details: MTT, 48 h exposure; read-out: IC50 HepG-2; cited from earlier work
MCF-7 cells = tested on: MCF-7 cells; design: method as in earlier work; details: MTT, 48 h exposure; cited from earlier work
HepG2 cells [3] = assay: Annexin V-FITC/PI apoptosis assay; type: cell-based, human; details: for apoptosis as extent of the level observed with SAHA / necrosis as extent of the level observed with SAHA: HepG2, relative to SAHA positive control; for cells in early apoptotic stage: lower right quadrant; for cells in late apoptotic stage: upper right quadrant
Protocol: An Annexin V-FITC assay was utilized to detect apoptosis in HepG2 cells. The cells were exposed to compounds 8b (3.4 µM) and 7c (7.3 µM) for 24 h, with untreated cells and cells treated with SAHA serving as negative and positive controls, respectively. After staining with propidium iodide (PI) and Annexin V-FITC, cell apoptosis was assessed via flow cytometry.

[4] = HepG2, 8b 3.4 µM, 7c 7.3 µM, 24 h (Figure 2 legend: 72 h)

Row | SMILES | IC50 (human Topo-II) | IC50 (Topo-I) | IC50 (HCT-116 cells) | IC50 (HepG2 cells [2]) | IC50 (MCF-7 cells) | further results
1 | O=C(CCCCCCC(=O)Nc1ccccc1)NO [SAHA, reference compound] |  |  |  |  |  | %G2/M (HepG2 cells [1]): 6.59%; %Pre-G1 (HepG2 cells [1]): 34.12%; %S (HepG2 cells [1]): 46.39%; G0–G1 (HepG2 cells [1]): 47.02%; IC50 (THLE-2 cell line; 48 h): 33.6 ± 1.89 µM
2 | CC(=O)Nc1ccc(S(=O)(=O)Nc2ccc(Cc3ccc(Nc4c5ccccc5nc5ccccc45)cc3)cc2)cc1 [Compound 7c] | 7.33 ± 0.4 µM | 16.6 ± 0.9 µM | 40.6 ± 3.7 µM | 31.1 ± 3.1 µM | 29.1 ± 2.7 µM | %G2/M (HepG2 cells [1]): 28.12%; %Pre-G1 (HepG2 cells [1]): 19.61%; %S (HepG2 cells [1]): 29.27%; G0–G1 (HepG2 cells [1]): 42.61%; IC50 (THLE-2 cell line; Homo sapiens, THLE-2, 48 h): 55.5 µM; IC50 (THLE-2 cell line; 48 h): 104 ± 5.86 µM; apoptosis as extent of the level observed with SAHA (HepG2 cells [3]): 55%; necrosis as extent of the level observed with SAHA (HepG2 cells [3]): 88%; cells in early apoptotic stage (HepG2 cells [3]; [4]): 1.6%; cells in necrotic stage (HepG2 cells [3]; HepG2, 8b 3.4 µM, 7c 7.3 µM, 24 h (Figure 2 legend: 72 h), upper left quadrant): 5.9%; cells in late apoptotic stage (HepG2 cells [3]; [4]): 12%
3 | S=C(Nc1ccccc1)Nc1ccc(Nc2c3ccccc3nc3ccccc23)cc1 [Compound 6b] | 24.5 ± 1.34 µM | 4.17 ± 0.23 µM | 13.1 ± 1.2 µM | 18 ± 1.7 µM | 16.5 ± 1.5 µM | 
4 | Cc1ccc(S(=O)(=O)Nc2ccc(Cc3ccc(Nc4c5ccccc5nc5ccccc45)cc3)cc2)cc1 [Compound 7b] | 234 ± 12.7 µM | 82.5 ± 4.49 µM | 88.5 ± 4.8 µM | 93.6 ± 5.3 µM | 73.8 ± 4.5 µM | melting point: > 250 °C
5 | N.N.[Cl][Pt][Cl] [Cisplatin, reference compound] | 11.3 ± 0.62 µM | 5.71 ± 0.31 µM |  |  |  | 
6 | O=[N+]([O-])c1ccccc1S(=O)(=O)Nc1ccc(Cc2ccc(Nc3c4ccccc4nc4ccccc34)cc2)cc1 [Compound 7a] | 8.07 ± 0.44 µM | 18.4 ± 1 µM | 72.2 ± 4.7 µM | 62.3 ± 4.4 µM | 88.4 ± 5.1 µM | melting point: 172 °C
7 | O=[N+]([O-])c1ccccc1S(=O)(=O)Nc1ccc(Nc2c3ccccc3nc3ccccc23)cc1 [Compound 8a] | 10.9 ± 0.59 µM | 15 ± 0.81 µM | 15.2 ± 1.6 µM | 20.6 ± 1.8 µM | 10.5 ± 1 µM | 
8 | Cc1ccc(S(=O)(=O)Nc2ccc(Nc3c4ccccc4nc4ccccc34)cc2)cc1 [Compound 8b] | 16.2 ± 0.88 µM | 3.41 ± 0.19 µM | 9.39 ± 0.9 µM | 14.5 ± 1.4 µM | 8.83 ± 0.9 µM | %G2/M (HepG2 cells [1]): 9.66%; %Pre-G1 (HepG2 cells [1]): 26.95%; %S (HepG2 cells [1]): 39.15%; G0–G1 (HepG2 cells [1]): 51.19%; IC50 (THLE-2 cell line; Homo sapiens, THLE-2, 48 h): 104 µM; IC50 (THLE-2 cell line; 48 h): 55.5 ± 3.13 µM; apoptosis as extent of the level observed with SAHA (HepG2 cells [3]): 79%; necrosis as extent of the level observed with SAHA (HepG2 cells [3]): 46%; cells in early apoptotic stage (HepG2 cells [3]; [4]): 3.5%; cells in late apoptotic stage (HepG2 cells [3]; [4]): 19.6%
9 | CC(C)c1cc(C(C)C)c(S(=O)(=O)Nc2ccc(Cc3ccc(Nc4c5ccccc5nc5ccccc45)cc3)cc2)c(C(C)C)c1 [Compound 7e] | 38.7 ± 2.1 µM | 42.2 ± 2.29 µM | 66.7 ± 4.5 µM | 55.4 ± 4.2 µM | 50.8 ± 4 µM | 
10 | CC(C)c1cc(C(C)C)c(S(=O)(=O)Nc2ccc(Nc3c4ccccc4nc4ccccc34)cc2)c(C(C)C)c1 [Compound 8d] | 32.7 ± 1.78 µM | 11.9 ± 0.65 µM | 29.9 ± 2.8 µM | 23.1 ± 2.2 µM | 19.7 ± 1.7 µM | 
11 | S=C(Nc1ccccc1)Nc1ccc(Cc2ccc(Nc3c4ccccc4nc4ccccc34)cc2)cc1 [Compound 6a] | 101 ± 5.51 µM | 27.6 ± 1.5 µM | 47.2 ± 3.9 µM | 36.7 ± 3.5 µM | 40.9 ± 3.8 µM | 
12 | O=S(=O)(Nc1ccc(Nc2c3ccccc3nc3ccccc23)cc1)c1ccc(N=Nc2ccccc2)cc1 [Compound 8c] | 22 ± 1.2 µM | 21.4 ± 1.17 µM | 35.7 ± 3.4 µM | 22.4 ± 2 µM | 25.5 ± 2.4 µM | 
13 | COc1cccc2c1C(=O)c1c(O)c3c(c(O)c1C2=O)C[C@@](O)(C(=O)CO)C[C@@H]3O[C@H]1C[C@H](N)[C@H](O)[C@H](C)O1 [Doxorubicin, reference compound] |  |  |  | 4.5 ± 0.2 µM |  | 
14 | O=S(=O)(Nc1ccc(Cc2ccc(Nc3c4ccccc4nc4ccccc34)cc2)cc1)c1ccc(N=Nc2ccccc2)cc1 [Compound 7d] | 21.6 ± 1.18 µM | 7.67 ± 0.42 µM | 58 ± 4.3 µM | 45.5 ± 3.9 µM | 33.6 ± 3.3 µM | 
15 | Nc1ccc(Nc2c3ccccc3nc3ccccc23)cc1 [Compound 5b] |  |  | 8.93 ± 0.8 µM | 8.3 ± 0.7 µM | 5.88 ± 0.4 µM | 
